From US20080221114A1, “2-(Cyclic Aminocarbonyl) Indoline Derivative and Medicinal Composition Containing the Same” (priority 2005, published 2008)

Legend:
[1] = target: T1, mitochondrial benzodiazepine receptor (MBR) (Rattus norvegicus, UniProt P16257); assay: Binding assay of mitochondrial benzodiazepine receptor (MBR), [3H]4'-chlorodiazepam (Ro5-4864), rat kidney membrane-preparation; conditions: rat kidney membranes, [3H]4'-chlorodiazepam 0.5 nM, 0° C. for 150 minutes
T1 construct: from tissue; host or cells: kidney of male Wistar rats (crude membrane preparation)
Experimental: The binding assay of central-type benzodiazepine receptor (CBR) and the preparation of receptor membrane-preparation were carried out according to the partially modified method of Braestrup, C. et al. [see; Br. J. Psychiatry, 133, 249-260 (1978)] with a minor modification; the binding assay of mitochondrial benzodiazepine receptor (MBR) and the preparation of receptor membrane-preparation were carried out according to the method of Schoemaker, H [see; J. Pharmacol. Exp. Ther., 225, 61-69 (1983)] with a minor modification.
CBR and MBR membrane-preparations were prepared from forebrain (CBR) and kidney (MBR) of male Wistar strain rats according to the following procedure, respectively.
To the forebrain of rat, 20 volumes of ice-cold 0.32 M sucrose solution to wet-weight of the tissue (1:20, wet-weight/vol) was added and homogenized, and then the homogenate was centrifuged at 900×g for 10 minutes. The supernatant was centrifuged at 11,500×g for 20 minutes, a buffer I for the binding assay (50 mM Tris-hydrochloric acid buffer, pH 7.5) was added to the resultant precipitate, and the mixture was homogenized, and then it was centrifuged at 30,000×g for 10 minutes. The resulting precipitate was washed 3 times according to the same operation, suspended in the buffer I (1 g of wet-weight of tissue/10 ml) and used as a CBR membrane-preparation for the binding assay. The CBR membrane-preparation was stored at −80° C. until use, and on the day of the assay, it was thawed and suspended in the buffer for use. On the other hand, kidney of rat was homogenized in 20 volumes of ice-cold buffer II for the binding assay to wet-weight of the tissue (1:20, wet-weight/vol) (50 mM sodium phosphate-potassium phosphate buffer solution containing 100 mM sodium chloride, pH 7.4), and then filtrated through 4 layers of gauze, and the filtrate was centrifuged at 40,000×g for 20 minutes. The resulting precipitate was suspended in the buffer II (1 g of wet-weight of tissue/50 ml) and used as a MBR membrane-preparation for the binding assay.
As a labeled ligand and a non-labeled ligand, [^3H]flunitrazepam (final concentration: 1 nM) and diazepam (final concentration: 20 μM) were used respectively, for the CBR binding assay, and [^3H]4′-chlorodiazepam (Ro5-4864, chemical name: 7-chloro-1,3-dihydro-1-methyl-5-(4-chloro-phenyl)-2H-1,4-[…]) (final concentration: 0.5 nM) and diazepam (final concentration: 50 μM) were used respectively, for the MBR binding assay. The binding assay of CBR was carried out by incubating at 0° C. for 30 minutes, while that of MBR was at 0° C. for 150 minutes.
The receptor binding assay was carried out in the following procedure. The test compound which the concentration was known, a tritium labeled ligand, a receptor membrane-preparation and the buffer I or II for the binding assay were added to a 96-well microplate in the total volume was 0.2 ml, and when the receptor membrane-preparation was added, the reaction started. After the incubation, the labeled ligand binding to the receptor was filtrated through a filter plate (UNI FILTER-96GF/B, PerkinElmer, the U.S.) using a cell harvester (PerkinElmer, the U.S.) to stop the reaction. The filter was immediately washed 6 times with 0.3 ml of the ice-cold buffer [50 mM Tris-hydrochloric acid buffer (pH 7.7)]. After 30 μl of liquid scintillation cocktail (MICROSCINTI 20, PerkinElmer, the U.S.) was added to each well on the dried filter plate, the radioactivity was measured with a TopCount. The specific binding amount was obtained by subtracting the non-specific binding amount which was simultaneously measured in the presence of non-labeled ligand from the total binding amount. The concentration that the test compound could decrease the specific binding amount of the labeled ligand to 50% of the amount (IC50 value) was analyzed using nonlinear least-squares method.

SMILES | melting point | IC50 [1] [nM]
C[C@@H]1C[C@H](C)CN(C(=O)C2Cc3ccccc3N2c2nc3ccccc3o2)C1 (relative stereo) [Example 5] | 199 to 201 °C | 2.28
CCc1cnc(N2c3ccccc3CC2C(=O)N2C[C@H](C)C[C@H](C)C2)nc1 (relative stereo) [Example 8] | 147 to 149 °C | 2.05
C[C@@H]1C[C@H](C)CN(C(=O)C2Cc3ccccc3N2c2ccc(F)cn2)C1 (relative stereo) [Example 10] | 139 to 141 °C | 1.14
Cc1ccc(N2c3ccccc3CC2C(=O)N2C[C@H](C)C[C@H](C)C2)nc1 (relative stereo) [Example 11] | 137 to 139 °C | 1.84
CC1CCCN(C(=O)C2Cc3ccccc3N2c2ncccn2)C1 (stereo not drawn) [Example 6] | 156 to 158 °C | 2.92
O=C(C1Cc2ccccc2N1c1ncccn1)N1CCCCC1 (stereo not drawn) [Example 7] | 149 to 151 °C | 123
C[C@H]1CCCN(C(=O)[C@@H]2Cc3ccccc3N2c2nccc3ccccc23)C1 [Example 12] | 134 to 136 °C | 1.37
C[C@@H]1C[C@H](C)CN(C(=O)[C@@H]2Cc3ccccc3N2c2nccc3ccccc23)C1 [Example 13] | 173 to 175 °C | 2.08
C[C@H]1CCCN(C(=O)[C@@H]2Cc3ccccc3N2c2nc3ccccc3s2)C1 [Example 14] | 165 to 166 °C | 0.823
C[C@@H]1C[C@H](C)CN(C(=O)[C@@H]2Cc3ccccc3N2c2nc3ccccc3s2)C1 [Example 15] | 170 to 173 °C | 1.46
C[C@@H]1CCCN(C(=O)[C@@H]2Cc3ccccc3N2c2nc3ccccc3o2)C1 [Example 16] | 220 to 222 °C | 1.17
C[C@H]1CCCN(C(=O)[C@@H]2Cc3ccccc3N2c2nc3ccccc3o2)C1 [Example 17, (S)-1-(1,3-benzoxazol-2-yl)-2-[[(S)-3-methylpiperidin-1-yl]carbonyl]indoline] | 191 to 193 °C | 0.638
C[C@@H]1C[C@H](C)CN(C(=O)[C@@H]2Cc3ccccc3N2c2nc3ccccc3o2)C1 [Example 18] | 165 to 167 °C | 1.47
C[C@@H]1C[C@H](C)CN(C(=O)[C@@H]2Cc3ccccc3N2c2cncc(Cl)n2)C1 [Example 21] | 174 to 175 °C | 1.23
C[C@@H]1CCCN(C(=O)[C@@H]2Cc3ccccc3N2c2ncccn2)C1 [Example 22] | 151 to 153 °C | 19.3
CC1CC(C)CN(C(=O)[C@@H]2Cc3ccccc3N2c2ncccn2)C1 (stereo partly drawn) [Example 25] | 237 to 239 °C | 6.73
C[C@H]1CCCN(C(=O)[C@@H]2Cc3ccccc3N2c2cnc3ccccc3n2)C1 [Example 26] | 160 to 161 °C | 0.851
C[C@@H]1C[C@H](C)CN(C(=O)[C@@H]2Cc3ccccc3N2c2cnc3ccccc3n2)C1 [Example 27] | 156 to 157 °C | 1.66
C[C@H]1CCCN(C(=O)[C@@H]2Cc3ccccc3N2c2nsc3ccccc23)C1 [Example 28] | 176 to 178 °C | 5.72
C[C@@H]1C[C@H](C)CN(C(=O)[C@@H]2Cc3ccccc3N2c2ccc([N+](=O)[O-])cn2)C1 [Example 30] | 208 to 210 °C | 1.29

More lines, now with the values ahead:

melting point | IC50 [1] [nM] | SMILES
179 to 182 °C |  | Cn1nc(N2c3ccccc3C[C@H]2C(=O)N2CCCCCCC2)ccc1=O (hydrate or solvate) [Example 119, (S)-1-(1-methyl-6-oxo-1,6-dihydropyridazin-3-yl)-2-[(1-perhydroazocinyl)carbonyl]indoline]
255 °C (dec.) |  | C[C@H]1CCCN(C(=O)[C@@H]2Cc3ccccc3N2c2ccc(=O)n(CC(=O)c3ccccc3)n2)C1 (hydrate or solvate) [Example 124]
221 to 223 °C |  | C[C@H]1CCCN(C(=O)[C@@H]2Cc3ccccc3N2c2ccc(=O)n(CC3CCC3)n2)C1 (hydrate or solvate) [Example 125]
172 to 174 °C | 77 | O=C(C1Cc2ccccc2N1c1ncccn1)N1CCCC(F)(F)C1 (racemic) [Example 48]
159 to 163 °C | 3.98 | O=C(C1Cc2ccccc2N1c1ncccn1)N1CCCC(C(F)(F)F)C1 (racemic) [Example 49]
124 to 128 °C | 92.6 | O=C(C1Cc2ccccc2N1c1ncccn1)N1CCCC(CO)C1 (racemic) [Example 50]
145 to 151 °C | 21.2 | O=C(C1Cc2ccccc2N1c1ncccn1)N1CCCC(c2ccccc2)C1 (racemic) [Example 51]
107 to 109 °C | 4.31 | CC1CC(C)CN(C(=O)C2Cc3ccccc3N2c2ccncn2)C1 (racemic) [Example 58]
155 to 157 °C | 5.58 | CC1CCCN(C(=O)C2Cc3cc(F)ccc3N2c2cccnn2)C1 (racemic) [Example 84]
160 to 162 °C | 3.69 | COc1cccc2c1CC(C(=O)N1CCCC(C)C1)N2c1cccnn1 (racemic) [Example 85]
217 to 219 °C | 10.1 | CC1CCCN(C(=O)C2Cc3cc(F)ccc3N2c2ccc(=O)n(C)n2)C1 (racemic) [Example 132]
181 to 182 °C | 3.95 | COc1cccc2c1CC(C(=O)N1CCCC(C)C1)N2c1ccc(=O)n(C)n1 (racemic) [Example 133]
248 to 250 °C | 33.8 | COc1ccc2c(c1)CC(C(=O)N1CCCC(C)C1)N2c1ccc(=O)n(C)n1 (racemic) [Example 134]
182 to 184 °C | 13.5 | COc1ccc2c(c1)N(c1ccc(=O)n(C)n1)C(C(=O)N1CCCC(C)C1)C2 (racemic) [Example 135]
114 to 115 °C | 0.727 | C[C@H]1CCCN(C(=O)[C@@H]2Cc3ccccc3N2c2cccnc2)C1 [Example 32]
183 to 186 °C | 1.19 | C[C@H]1CCCN(C(=O)[C@@H]2Cc3ccccc3N2c2ccc(Cl)nn2)C1 [Example 35]
182 to 184 °C | 1.28 | C[C@@H]1C[C@H](C)CN(C(=O)[C@@H]2Cc3ccccc3N2c2ccc(Cl)nn2)C1 [Example 36]
192 to 194 °C | 3.23 | Cc1ccc(N2c3ccccc3C[C@H]2C(=O)N2CCC[C@H](C)C2)nn1 [Example 37]
158 to 159 °C | 1.88 | Cc1ccc(N2c3ccccc3C[C@H]2C(=O)N2C[C@H](C)C[C@H](C)C2)nn1 [Example 38]
173 to 175 °C | 1.71 | COc1ccc(N2c3ccccc3C[C@H]2C(=O)N2C[C@H](C)C[C@H](C)C2)nn1 [Example 39]
159 to 160 °C | 14.3 | C[C@@H]1C[C@H](C)CN(C(=O)[C@H]2Cc3ccccc3N2c2ncccn2)C1 [Example 42]
177 to 179 °C | 12.9 | CC1CCCN(C(=O)[C@@H]2Cc3ccccc3N2c2cnccn2)C1 (stereo partly drawn) [Example 59]
174 to 175 °C | 1.54 | C[C@H]1CCCN(C(=O)[C@@H]2Cc3ccccc3N2c2cnccn2)C1 [Example 60, (S)-2-[(S)-3-methylpiperidin-1-yl]carbonyl-1-(2-pyrazinyl)indoline]
186 to 188 °C |  | CCCCn1nc(N2c3ccccc3C[C@H]2C(=O)N2CCC[C@H](C)C2)ccc1=O [Example 74]
